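Test compounds were applied to cells in 96-well plates for 48 hours at 5 doses. At the GI50, growth is halved.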 The source made the active and inactive calls. Rule as the data show it: active = GI50 up to about 1.1 µM and inactive = higher.
Key:
Experiment in all cases: DTP human tumour cell line panel, 48 h
UO-31 = tested on: UO-31
NCI-H460 = tested on: NCI-H460
HL-60 = tested on: HL-60
M14 = tested on: M14
HOP-62 = tested on: HOP-62
OVCAR-8 = tested on: OVCAR-8
NCI-H226 = tested on: NCI-H226
SF-295 = tested on: SF-295
SNB-75 = tested on: SNB-75
SF-539 = tested on: SF-539
MCF7 = tested on: MCF7
BT-549 = tested on: BT-549
A549 = tested on: A549
HCT-116 = tested on: HCT-116
TK-10 = tested on: TK-10
HCT-15 = tested on: HCT-15
SR = tested on: SR
COLO 205 = tested on: COLO 205
ACHN = tested on: ACHN
OVCAR-5 = tested on: OVCAR-5
U-251 = tested on: U-251
CCRF-CEM = tested on: CCRF-CEM
NCI-H522 = tested on: NCI-H522
EKVX = tested on: EKVX
NCI-H23 = tested on: NCI-H23
786-0 = tested on: 786-0
PC-3 = tested on: PC-3
SF-268 = tested on: SF-268
SN12C = tested on: SN12C
SNB-19 = tested on: SNB-19
CAKI-1 = tested on: CAKI-1
OVCAR-4 = tested on: OVCAR-4
HOP-92 = tested on: HOP-92
SK-OV-3 = tested on: SK-OV-3
LOX IMVI = tested on: LOX IMVI
UACC-62 = tested on: UACC-62
MOLT-4 = tested on: MOLT-4
OVCAR-3 = tested on: OVCAR-3
A498 = tested on: A498
T47D = tested on: T47D
RXF 393 = tested on: RXF 393
SK-MEL-5 = tested on: SK-MEL-5
UACC-257 = tested on: UACC-257
HCC 2998 = tested on: HCC 2998
KM12 = tested on: KM12
MDA-MB-231 = tested on: MDA-MB-231
NCI/ADR-RES = tested on: NCI/ADR-RES
MDA-MB-435 = tested on: MDA-MB-435
SK-MEL-28 = tested on: SK-MEL-28
SK-MEL-2 = tested on: SK-MEL-2
DU-145 = tested on: DU-145
HT-29 = tested on: HT-29
RPMI-8226 = tested on: RPMI-8226
SW-620 = tested on: SW-620
MDA-N = tested on: MDA-N
Malme-3M = tested on: Malme-3M
Hs-578T = tested on: Hs-578T
IGROV-1 = tested on: IGROV-1
K562 = tested on: K562

Cn1cc(S(=O)(=O)NC(=O)Nc2ccc(Cl)cc2)c2ccccc21
GI50 (UO-31): 44.8 µM (inactive)
GI50 (NCI-H460): 57.4 µM (inactive)
GI50 (HL-60): > 100 µM (inactive)
GI50 (M14): > 100 µM (inactive)
GI50 (HOP-62): 15.1 µM (inactive)
GI50 (OVCAR-8): 82.2 µM (inactive)
GI50 (NCI-H226): 83.8 µM (inactive)
GI50 (SF-295): 43.6 µM (inactive)
GI50 (SNB-75): > 100 µM (inactive)
GI50 (SF-539): 11.1 µM (inactive)
GI50 (MCF7): 56 µM (inactive)
GI50 (BT-549): > 100 µM (inactive)
GI50 (A549): 63.4 µM (inactive)
GI50 (HCT-116): 32.4 µM (inactive)
GI50 (TK-10): 21.4 µM (inactive)
GI50 (HCT-15): 4.5 µM
GI50 (SR): > 100 µM (inactive)
GI50 (COLO 205): 30.3 µM (inactive)
GI50 (ACHN): 25.4 µM (inactive)
GI50 (OVCAR-5): 46.1 µM (inactive)
GI50 (U-251): 41.9 µM (inactive)
GI50 (CCRF-CEM): > 100 µM (inactive)
GI50 (NCI-H522): 24.5 µM (inactive)
GI50 (EKVX): > 100 µM (inactive)
GI50 (NCI-H23): > 100 µM (inactive)
GI50 (786-0): > 100 µM (inactive)
GI50 (PC-3): 43.9 µM (inactive)
GI50 (SF-268): > 100 µM (inactive)
GI50 (SN12C): > 100 µM (inactive)
GI50 (SNB-19): > 100 µM (inactive)
GI50 (CAKI-1): 15.5 µM (inactive)
GI50 (OVCAR-4): > 100 µM (inactive)
GI50 (HOP-92): > 100 µM (inactive)
GI50 (SK-OV-3): 55.5 µM (inactive)
GI50 (LOX IMVI): 93.1 µM (inactive)
GI50 (UACC-62): 12.4 µM (inactive)
GI50 (MOLT-4): > 100 µM (inactive)
GI50 (OVCAR-3): > 100 µM (inactive)
GI50 (A498): > 100 µM (inactive)
GI50 (T47D): 28.6 µM (inactive)
GI50 (RXF 393): > 100 µM (inactive)
GI50 (SK-MEL-5): 73.5 µM (inactive)
GI50 (UACC-257): > 100 µM (inactive)
GI50 (HCC 2998): 51.4 µM (inactive)
GI50 (KM12): 28.5 µM (inactive)
GI50 (MDA-MB-231): > 100 µM (inactive)
GI50 (NCI/ADR-RES): 38.6 µM (inactive)
GI50 (MDA-MB-435): 52.1 µM (inactive)
GI50 (SK-MEL-28): > 100 µM (inactive)
GI50 (SK-MEL-2): 54.7 µM (inactive)
GI50 (DU-145): 49.2 µM (inactive)
GI50 (HT-29): > 100 µM (inactive)
GI50 (RPMI-8226): > 100 µM (inactive)
GI50 (SW-620): 50.6 µM (inactive)
GI50 (MDA-N): 27.4 µM (inactive)
GI50 (Malme-3M): > 100 µM (inactive)
GI50 (Hs-578T): > 100 µM (inactive)
GI50 (IGROV-1): 13.3 µM (inactive)
GI50 (K562): > 100 µM (inactive)

Reference: ChEMBL document CHEMBL1201862, “PubChem BioAssay data set” (2004)
